Literature values, collected in patent publication US12290525B2, “5 alpha dihydrotestosterone formulations and associated methods of use and treatment” (priority 2022, dated 2025).

Key:
[1] = target: estrogen receptor (ER) subtype ERβ (Homo sapiens, UniProt Q92731)
Chain of estrogen receptor (ER) subtype ERβ (Q92731 whole entry): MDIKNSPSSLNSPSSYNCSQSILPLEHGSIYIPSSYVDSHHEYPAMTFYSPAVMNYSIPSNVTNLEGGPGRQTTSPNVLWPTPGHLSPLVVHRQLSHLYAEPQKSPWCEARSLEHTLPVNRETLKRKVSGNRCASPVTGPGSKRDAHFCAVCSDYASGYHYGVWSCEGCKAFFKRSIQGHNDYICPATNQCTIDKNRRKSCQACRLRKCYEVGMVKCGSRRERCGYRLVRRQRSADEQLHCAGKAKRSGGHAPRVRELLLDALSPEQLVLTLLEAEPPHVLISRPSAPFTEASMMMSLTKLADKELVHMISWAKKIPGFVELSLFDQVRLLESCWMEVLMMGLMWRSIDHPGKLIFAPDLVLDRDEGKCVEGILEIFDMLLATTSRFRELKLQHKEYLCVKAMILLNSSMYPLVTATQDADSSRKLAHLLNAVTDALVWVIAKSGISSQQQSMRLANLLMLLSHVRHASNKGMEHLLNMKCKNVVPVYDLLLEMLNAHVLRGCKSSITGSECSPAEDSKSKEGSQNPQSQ

| Compound | activity at ERβ [1] | activity at the GABAA receptor (GABAA receptor) |
| --- | --- | --- |
| C[C@]12CC[C@H](O)C[C@@H]1CC[C@@H]1[C@@H]2CC[C@]2(C)[C@@H](O)CC[C@@H]12 [3β-androstanediol] | potent and selective agonist |  |
| C[C@]12CC[C@@H](O)C[C@@H]1CC[C@@H]1[C@@H]2CC[C@]2(C)[C@@H](O)CC[C@@H]12 [3α-Androstanediol, 3α-androstanediol] |  | potent positive allosteric modulator |
